The source of these data is ChEMBL document CHEMBL5356958, “Discovery of a Highly Potent and Selective MYOF Inhibitor with Improved Water Solubility for the Treatment of Gastric Cancer” (J Med Chem, 2023).

In data set [1] the test system is MKN-45. The data set can be described thus: Antiproliferative activity against human MKN-45 cells incubated for 48 hrs by SRB assay. The data set is classed as functional, cell-based. Conditions: MKN-45, 48 h. A general note: Sulforhodamine B stains cellular protein and so reports cell mass.
Another data set deals with Cytochrome P450 2C9 (Homo sapiens, UniProt P11712). The data set can be described thus: Inhibition of CYP2C9 in human liver microsomes. The data set is classed as ADME, Microsome.
For data set [2], the system named is MKN-45. The data set can be described thus: Inhibition of epithelial mesenchymal transition in human MKN-45 cells assessed as downregulation in N-cadherin level by Western blotting analysis. It counts as functional, cell-based. In general terms: A western blot detects proteins with antibodies after separation by electrophoresis.
Data set [3] relates to MKN-45. Kind of data set: Induction of apoptosis in human MKN-45 cells assessed as early apoptotic cells at 200 nM incubated for 48 hrs by Annexin V-FITC/PI staining based flow cytometry analysis (reference value: 0.5%). It counts as functional. A general note: In flow cytometry, cells or beads pass a laser one at a time.
Data set [4] is described as follows: AUC(0 to infinity) in ICR mouse at 1 mg/kg, iv. It counts as ADME, organism-based. On the set-up: dose 1 mg/kg, route iv. To be noted: in vivo.
In data set [5] the test system is MKN-45. The data set can be described thus: Antitumor activity against human MKN-45 cells xenografted in BALB/c mouse assessed as tumor growth inhibition at 30 mg/kg/day, ip measured every 3 days for 21 days. The data set is classed as functional. Conditions: MKN-45, 504 h, time 21 day, read-out: TGI.
A short description of data set [6]: Toxicity in BALB/c mouse assessed as change in heart morphology at 15 to 30 mg/kg, ip measured every 3 days for 21 days by HE staining based assay. The data set is classed as organism-based. Conditions: in vivo, 504 h, dose 15-30 mg/kg, time 21 day.
The next data set addresses CYP1A (Homo sapiens, UniProt P04798+P05177). Kind of data set: Inhibition of CYP1A in human liver microsomes. The data set is classed as ADME, Microsome.
Data set [7] is described as follows: Volume of distribution at steady state in ICR mouse at 1 mg/kg, iv. It counts as ADME, organism-based. Conditions: in vivo, read-out: Vdss.
Another data set relates to SGC-7901. Kind of data set: Antiproliferative activity against human SGC-7901 cells incubated for 48 hrs by SRB assay. To be noted: SGC-7901, 48 h. It counts as functional, cell-based.
Data set [8] has as its system MKN-45. The data set can be described thus: Induction of apoptosis in human MKN-45 cells assessed as late apoptotic cells at 100 nM incubated for 48 hrs by Annexin V-FITC/PI staining based flow cytometry analysis (reference value: 2.6%). It counts as functional.
Data set [9] is described as follows: Toxicity in BALB/c mouse assessed as change in spleen morphology at 15 to 30 mg/kg, ip measured every 3 days for 21 days by HE staining based assay. It counts as organism-based. To be noted: in vivo, 504 h, dose 15-30 mg/kg, time 21 day.
Data set [10] can be described thus: AUC(0 to infinity) in ICR mouse at 10 mg/kg, po. The data set is classed as ADME, organism-based. Also on record: dose 10 mg/kg, route po. To be noted: in vivo.

The term IC50 denotes the concentration at which inhibition is half-maximal. A word on the AUC(0-inf): it is the area under the concentration-time curve extrapolated to infinity. Read a low AUC(0-inf) as less exposure.

Chain of Cytochrome P450 2C9 (P11712 whole entry): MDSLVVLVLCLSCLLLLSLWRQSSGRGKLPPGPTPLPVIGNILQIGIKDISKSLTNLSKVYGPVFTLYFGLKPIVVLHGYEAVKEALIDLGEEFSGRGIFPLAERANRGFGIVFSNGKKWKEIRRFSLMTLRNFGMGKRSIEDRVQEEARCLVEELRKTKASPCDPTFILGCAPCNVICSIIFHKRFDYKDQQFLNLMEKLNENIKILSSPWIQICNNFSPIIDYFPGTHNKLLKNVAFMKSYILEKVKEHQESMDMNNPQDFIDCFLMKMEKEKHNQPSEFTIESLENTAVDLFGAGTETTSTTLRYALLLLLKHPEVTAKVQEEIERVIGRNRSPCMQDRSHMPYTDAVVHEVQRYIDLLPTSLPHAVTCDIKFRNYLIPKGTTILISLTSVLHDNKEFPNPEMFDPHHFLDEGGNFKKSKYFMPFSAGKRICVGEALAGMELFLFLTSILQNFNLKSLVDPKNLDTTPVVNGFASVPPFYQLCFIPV

`CCc1nc(-c2ccc(OC)cc2)n(-c2cccc(C(=O)NCCCCn3nccn3)c2)n1`: the IC50 was 0.14 µM in the data set on MKN-45 [1], 14.7 µM against Cytochrome P450 2C9, above 50 µM against CYP1A and 0.44 µM with SGC-7901. The inhibition entry in the data set with MKN-45 [2] is “Dose-Dependent Effect”. In addition, the Activity is 1% in the data set on MKN-45 [3], “Non-Toxic” in data set [6], 2.8% in the data set with MKN-45 [8] and “Non-Toxic” in data set [9]. Further, the AUC(0-inf) in [4] came out at 762 ng·h/mL; in data set [10] it was 4940 ng·h/mL. Besides, the inhibition in vivo at 30 mg/kg/day in the data set on MKN-45 [5] was 68.5%. Moreover, in [7], the Vd was found to be 0.377 L/kg.
